Assay results reported in US10993433B2, “Method of producing in vitro testicular constructs and uses thereof” (Wake Forest University Health Sciences, priority 2015, dated 2021).
Where two headings read alike, the source gives them in different places.

Assays:
[1] = test system: 3D human testicular organoids; assay: Drug toxicity test, CellTiter-Glo ATP viability, 3D testicular organoids; assay type: cell-based; settings: 48 hours exposure, ATP content
Experimental: Isolated human SSC, immortalized Sertoli cells, and immortalized Leydig cells at passage 5-6 were propagated in normal 6-well tissue culture plates to 80-90% confluency and passaged using trypsin EDTA (0.25%). Counted cells were pelleted and resuspended in a testicular organoid formation medium composed of normal StemPro®-34 (Invitrogen) SSC proliferation medium supplemented with 30% FBS, 1 μg/mL solubilized human testis extracellular matrix extract and 50 μg/mL Gentamycin. All three cell suspensions were combined together at a ratio of 8:1:1 and seeded into Perfecta3D® 96-well hanging drop plates (3D Biomatrix, Ann Arbor, Mich.) or GravityPLUS™ 96-well hanging drop plates (InSphero, Schlieren, Switzerland) at a density of 10,000 cells/40 μl drop volume. Following 48-72 hours of hanging drop culture, all testicular cell subtypes had amalgamated into compact organoids and were transferred into 96-well format Corning® Costar® Ultra-low Attachment Multiwell U-bottom plates for long term culture (Sigma-Aldrich, St. Louis, Mo.). For long-term study, all testicular organoids were cultured inn normal StemPro®-34 SSC proliferation medium without human leukemia inhibitory factor (LIF) and supplemented with 1 μg/mL solubilized human testis extracellular matrix extract, 2 μM retinoic acid (Sigma-Aldrich), 2.5×10^−5 IU follicle-stimulating hormone (Sigma-Aldrich), 100 ng/mL recombinant human stem cell factor (SCF; PeproTech, Rocky Hill, N.J.), and 50 μg/mL Gentamycin. Culture medium was refreshed every 4 days. All testicular organoids were cultured at 34° C. and 5% CO2.
(§1) For toxicity testing, cisplatin and etoposide were purchased from Santa Cruz Biotechnology (Dallas, Tex.) and stock solutions of 5 mM and 25 mM were made in 0.9% NaCl and DMSO, respectively. Doxorubicin was purchased from Sigma-Aldrich, (St. Louis, Mo.) and a stock solution was produced in diH2O at a concentration of 10 mM. Busulfan (24 mM) was purchased from Otsuka Pharmaceutical (Tokyo, Japan) and was diluted into medium immediately prior to use. The undifferentiated (just after formation, 2 days in culture) and differentiated (23 days in culture) organoids, as well as 2D cultured cells (at the same cell ratios and density of 3D organoids), were treated for 48 hours in 6 different concentrations of each drug (0.01, 0.1, 1, 10, 100 and 1000 μM) in vitro. After 48 hours, CellTiter-Glo® Luminescent Cell Viability assays were performed (Promega) on all conditions. Briefly, culture plates were removed from the incubator and equilibrated to room temperature for 30 minutes. To each well of the 96-well culture plate, 100 μl of CellTiter-Glo® reagent was added at a 1:1 ratio and plates were moved to an orbital shaker for 5 minutes to induce cell lysis. Plates were incubated at room temperature for 10 minutes to stabilize luminescent signal and read on a Veritas™ luminometer. Integration times of 1 second were used for all samples. All conditions were performed in triplicate and medium only control wells were read and subsequently used for background subtraction. IC50 values were determined using GraphPad Prism® 6 calculated via 4-parameter fit with a 95% confidence interval. All experimental conditions were repeated at least three times.
The use of human testicular organoids as a novel screening tool for reproductive toxicity was assess by exposing 3D organoids to four clinically relevant antimitotic chemotherapeutic drugs: busulfan, cisplatin, doxorubicin, and etoposide. To obtain IC50 values, undifferentiated (2 days in culture) and differentiated (23 days in culture) organoids were exposed to increasing concentrations of drugs for 48 hours. H&E staining as well as Live/Dead viability assays were performed on organoids following drug treatment (FIG. 7A and Figure B, respectively). Drug-treated organoids were harvested and further evaluated for toxicity by measuring ATP production (CellTiter-Glo®; Promega, Madison, Wis.). […]

[2] = test system: 2D cultured cells (SSC, Sertoli, Leydig at the same cell ratios and density of 3D organoids); assay: Drug toxicity test, CellTiter-Glo ATP viability, 2D cultured testicular cells; assay type: cell-based, human; settings: 2D culture, 48 hours exposure, ATP content (CellTiter-Glo)
Experimental: as §1
The use of human testicular organoids as a novel screening tool for reproductive toxicity was assess by exposing 3D organoids to four clinically relevant antimitotic chemotherapeutic drugs: busulfan, cisplatin, doxorubicin, and etoposide. To obtain IC50 values, undifferentiated (2 days in culture) and differentiated (23 days in culture) organoids were exposed to increasing concentrations of drugs for 48 hours. H&E staining as well as Live/Dead viability assays were performed on organoids following drug treatment (FIG. 7A and Figure B, respectively). Drug-treated organoids were harvested and further evaluated for toxicity by measuring ATP production (CellTiter-Glo®; Promega, Madison, Wis.). Resulting viability was then used to establish IC50 values for organoid cultures (FIG. 7C).

[3] = Homo sapiens, differentiated organoids (23 days in culture), read-out: 3D IC50 Differentiated Organoids
[4] = Homo sapiens, undifferentiated organoids (2 days in culture), read-out: 3D IC50 Undifferentiated Organoids

| SMILES | IC50 [1, 3] [µM] | IC50 [1, 4] [µM] | IC50 ([2]; Homo sapiens, Leydig) [µM] | IC50 ([1]; differentiated organoids (23 days in culture), read-out: 3D IC50 Differentiated Organoids) [µM] | IC50 ([1]; undifferentiated organoids (2 days in culture), read-out: 3D IC50 Undifferentiated Organoids) [µM] | IC50 [2] [µM] |
| --- | --- | --- | --- | --- | --- | --- |
| CS(=O)(=O)OCCCCOS(C)(=O)=O [Busulfan] | 906 | 830 | 328 | – | – | – |
| N.N.[Cl][Pt][Cl] [Cisplatin] | – | – | – | 158 | 38.4 | 23.8 |
| COc1cccc2c1C(=O)c1c(O)c3c(c(O)c1C2=O)C[C@@](O)(C(=O)CO)C[C@@H]3O[C@H]1C[C@H](N)[C@H](O)[C@H](C)O1 [Doxorubicin] | 2.76 | 1.33 | 0.19 | – | – | – |
| COc1cc([C@@H]2c3cc4c(cc3[C@@H](O[C@@H]3O[C@@H]5CO[C@@H](C)O[C@H]5[C@H](O)[C@H]3O)[C@H]3COC(=O)[C@H]23)OCO4)cc(OC)c1O [Etoposide] | 839 | 449 | 43.5 | – | – | – |
